Calls of active or inactive are those of the source. The rule behind the calls is not given here.
Experiments:
Caco-2 [1] = test: Cytotoxicity against colchicine and vincristine stimulated human Caco-2 cells assessed as reduction in cell viability at 10 uM preincubated for 30 mins followed by colchicine and vincristine addition for 24 hrs by CCK-8 assay relative to control; type: functional; conditions: time 24.5 hrs
[2] = target: ATP-dependent translocase ABCB1 (Homo sapiens, UniProt P08183); test: Inhibition of human recombinant P-gp ATPase activity in isolated membranes incubated in presence of verapamil by firefly luciferase based luminescence analysis; type: cell membranes
Chain of ATP-dependent translocase ABCB1 (P08183 whole entry): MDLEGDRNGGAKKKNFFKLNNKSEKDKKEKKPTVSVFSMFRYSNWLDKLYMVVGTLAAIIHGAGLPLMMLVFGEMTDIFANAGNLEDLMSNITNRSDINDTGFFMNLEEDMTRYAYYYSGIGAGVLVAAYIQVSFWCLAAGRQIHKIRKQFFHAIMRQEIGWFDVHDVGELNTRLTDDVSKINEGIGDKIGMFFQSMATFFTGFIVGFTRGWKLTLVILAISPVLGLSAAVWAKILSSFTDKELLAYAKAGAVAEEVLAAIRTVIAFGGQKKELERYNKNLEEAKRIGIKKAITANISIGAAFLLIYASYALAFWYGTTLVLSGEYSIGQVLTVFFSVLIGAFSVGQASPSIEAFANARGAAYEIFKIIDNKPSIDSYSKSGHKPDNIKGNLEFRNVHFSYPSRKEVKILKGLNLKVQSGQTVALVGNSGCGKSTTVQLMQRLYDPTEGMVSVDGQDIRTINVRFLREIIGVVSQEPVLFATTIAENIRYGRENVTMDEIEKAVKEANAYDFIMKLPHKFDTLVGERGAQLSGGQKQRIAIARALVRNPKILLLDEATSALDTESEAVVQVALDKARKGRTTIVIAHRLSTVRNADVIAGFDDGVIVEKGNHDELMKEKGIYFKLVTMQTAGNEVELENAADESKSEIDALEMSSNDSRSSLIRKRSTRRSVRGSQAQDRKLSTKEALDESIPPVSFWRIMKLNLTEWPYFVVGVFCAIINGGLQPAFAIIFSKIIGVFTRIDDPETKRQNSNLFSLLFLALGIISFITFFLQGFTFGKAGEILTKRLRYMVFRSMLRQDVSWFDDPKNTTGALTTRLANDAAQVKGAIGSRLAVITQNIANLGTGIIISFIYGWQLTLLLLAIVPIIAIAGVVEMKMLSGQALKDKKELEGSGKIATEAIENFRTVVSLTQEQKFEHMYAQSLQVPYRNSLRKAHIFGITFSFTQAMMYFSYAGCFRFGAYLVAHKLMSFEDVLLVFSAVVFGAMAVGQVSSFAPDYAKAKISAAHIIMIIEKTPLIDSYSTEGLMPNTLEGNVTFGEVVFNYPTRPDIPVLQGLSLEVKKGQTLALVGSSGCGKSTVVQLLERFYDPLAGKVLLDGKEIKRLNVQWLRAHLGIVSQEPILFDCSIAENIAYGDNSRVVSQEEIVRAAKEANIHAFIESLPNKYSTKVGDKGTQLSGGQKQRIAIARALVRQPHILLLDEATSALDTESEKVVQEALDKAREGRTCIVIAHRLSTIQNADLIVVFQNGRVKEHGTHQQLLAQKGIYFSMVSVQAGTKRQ

Caco-2 [3] = test: Cytotoxicity against colchicine and vincristine stimulated human Caco-2 cells assessed as reduction in cell viability at 10 uM preincubated for 30 mins followed by colchicine and vincristine addition for 24 hrs by CCK-8 assay; type: functional, cell-based; conditions: time 24.5 hrs

Row | Structure (SMILES) | Activity (Caco-2 [1]) | IC50 [2] | Activity (Caco-2 [3])
1 | COc1cc([C@@H](CC(=O)NCCC(=O)Nc2ccccn2)C2=C(O)[C@@]3(Oc4c(Cl)c(OC)cc(OC)c4C3=O)[C@H](C)CC2=O)ccc1O | 30% | 1.28 µM | 
2 | CC(C)(C)OC(=O)N[C@H](Cc1ccc(OC(=O)OC(C)(C)C)cc1)C(=O)NCCCC(=O)Oc1ccc2c(=O)c(Oc3ccccc3F)coc2c1 |  | > 50 µM | 
3 | O=C(O)[C@H]1O[C@@H](Oc2cc3oc(-c4ccc(O)cc4)cc(=O)c3c(O)c2O)[C@H](O)[C@@H](O)[C@@H]1O [SCUTELLARIN] |  | 19.7 µM | 
4 | COc1cc([C@@H](CC(=O)NCCCN2CCOCC2)C2=C(O)[C@@]3(Oc4c(Cl)c(OC)cc(OC)c4C3=O)[C@H](C)CC2=O)ccc1O | 30% | 3.31 µM | 
5 | COc1cc(CCNC(=O)C[C@@H](C2=C(O)[C@@]3(Oc4c(Cl)c(OC)cc(OC)c4C3=O)[C@H](C)CC2=O)c2ccc(SC)cc2)c([N+](=O)[O-])cc1OC | 30% | 2.4 µM | 
6 | CC(C)C[C@H](NC(=O)[C@H]1CCCN1C(=O)[C@@H](C)NC(=O)COc1cc(O)c2c(=O)c(-c3ccc4c(c3)OCCO4)coc2c1)C(=O)CC(N)=O |  | > 50 µM | inactive
7 | COc1ccc(-c2coc3c4c(cc(O)c3c2=O)OC(=O)C[C@H]4c2ccc(OCc3nccn3C)c(OC)c2)cc1OC | 30% | 4.8 µM | 
8 | COC(=O)C[C@@H](c1ccc(-c2cc(C(=O)O)ccc2Cl)o1)c1oc(CN2CCN(c3ccc(OC)cc3)CC2)cc(=O)c1O | 30% | 4.99 µM | 
9 | CC(=O)c1c(O)c(C)c(O)c2c1OC1=CC(=O)/C(=C(/C)Nc3cc(-c4nnn(CC(=O)O)n4)ccc3O)C(=O)[C@@]12C | 30% | 3.17 µM | 
10 | COC(=O)[C@@H](Cc1cccc([N+](=O)[O-])c1O)NC(=O)CCC(=O)OCC(=O)[C@@]1(O)CC[C@@H]2[C@@H]3CCC4=CC(=O)CC[C@]4(C)[C@@H]3CC[C@@]21C |  | 7.9 µM | 
11 | COc1ccc2c(c1)[C@H](CCNC(=O)C[C@@H](C1=C(O)[C@@]3(Oc4c(Cl)c(OC)cc(OC)c4C3=O)[C@H](C)CC1=O)c1ccc(O)c(OC)c1)C(=O)N2 |  | > 50 µM | 
12 | CCOC(=O)c1cccc(NC(=O)O[C@@H]2CO[C@H]3[C@@H]2OC[C@@H]3NS(=O)(=O)c2cc(OC)ccc2OC)c1 |  | > 50 µM | inactive

— ChEMBL document CHEMBL5376012, “Consensus screening for a challenging target: the quest for P-glycoprotein inhibitors” (RSC Med Chem, 2024)
